Data on eight compounds can be found in publication PMC10584170, “Machine learning-based phenotypic imaging to characterise the targetable biology of Plasmodium falciparum male gametocytes for the development of transmission-blocking antimalarials” (PLOS Pathogens, 2023).

In data set [1] the test system is P. falciparum male gametocytes. Briefly: P. falciparum Dual Gamete Formation Assay (PfDGFA), male readout (exflagellation). The conditions noted are these: for IC50: this study, read-out: Pf DGFA IC50 MALE; for Average inhibition male (%): average of replicates; for % inhibition male (individual replicates) R1: replicate R1; for % inhibition male (individual replicates) R3: replicate R3; for % inhibition male (individual replicates) R4: replicate R4. In kind it is cell-based, Plasmodium falciparum NF54. The method, boiled down: (§1)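 Two sex-specific readouts come from one well: male exflagellation centres recorded by brightfield video right after activation, and female gametes scored by Cy3-anti-Pfs25 fluorescence after 24 h at 28°C.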

The subject of data set [2] is P. falciparum female gametocytes. As to the kind of experiment: P. falciparum Dual Gamete Formation Assay (PfDGFA), female readout (Pfs25-positive female gametes). In kind it is cell-based, Plasmodium falciparum NF54. The conditions noted are these: for Average inhibition female (%): average of replicates; for % inhibition female (individual replicates) R1: replicate R1; for % inhibition female (individual replicates) R3: replicate R3; for % inhibition female (individual replicates) R4: replicate R4. The method, boiled down: as §1

The test system of a further data set is HepG2 cells. Briefly: HepG2 cytotoxicity counter-screen. The conditions noted are these: for Mean TOX: mean of the HepG2 TOX50 values. Background: Counterscreens check selectivity or assay interference.
Setting [3] is: 2µM, 24h preincubation with gametocytes prior to induction of gametogenesis.
Where [4] appears, read: PfDGFA at 2µM, 24h preincubation with gametocytes prior to induction of gametogenesis.
Where [5] appears, read: PfDGFA at 2µM, 24h preincubation.
The mark [6] stands for this setting: 2µM, 24h preincubation with gametocytes.

Take `C=CCNc1cc(-c2ccccn2)nc(-c2ccccn2)n1` [TC01]: in data set [1], the “Cytotox ratio Pf Male” value is given as 13.8 and the IC50 (usually the concentration that gives 50% inhibition) came to 0.91 µM. Also, the “Cytotox ratio Pf Female” value in data set [2] is on record as 2.6. In addition, in data set [2] (this study, read-out: Pf DGFA IC50 FEM), the IC50 was determined as 4.89 µM. Further, the “Mean TOX” value in the data set on HepG2 cells was found to be 12.58 µM.

For the compound `c1ccc2[nH]c(CN(Cc3nc4ccccc4[nH]3)Cc3nc4ccccc4[nH]3)nc2c1` [TC03], in data set [1], the “Cytotox ratio Pf Male” value was 14.8 and the IC50 was determined as 6.75 µM. Besides, in data set [2], the “Cytotox ratio Pf Female” value amounted to 10.0. Moreover, the “DGFA Tox50 HepG2” value in the data set with HepG2 cells (HepG2 value reported with the DGFA screen) was found to be 100 µM. In the data set on HepG2 cells, the “Mean TOX” value amounted to 100.00 µM.

As for `COc1ccc2c(c1)nc(CNC(=N)N)n2Cc1ccc(Cl)cc1.Cl` [TCMDC-142042], in data set [1] (setting [3]), the “Average inhibition male (%)” value was -2.9%, the “% inhibition male (individual replicates) R1” value is -15.5%, the “% inhibition male (individual replicates) R3” value is -14.5% and the “% inhibition male (individual replicates) R4” value is 30.2%. The HitlevelM in data set [1] (2µM, 24h preincubation, hits selected on >50% inhibition in the male readout across replicates) worked out at 0. The compound further gave an Activity in data set [1] (PfDGFA at 2µM, 24h preincubation, hit = >50% inhibition in male or female readout in at least 3 replicates, 0 = no class assigned) of 0. In data set [2] (setting [3]), the “Average inhibition female (%)” value amounted to 8.7%, the “% inhibition female (individual replicates) R1” value worked out at 5.3%, the “% inhibition female (individual replicates) R3” value was -8.2% and the “% inhibition female (individual replicates) R4” value worked out at 2.2%. Further, in data set [2] (2µM, 24h preincubation, hits selected on >50% inhibition in the female readout across replicates), the HitlevelF is recorded as 0.

`Cc1ccc2nc(C)cc(N/N=C/c3ccc([N+](=O)[O-])cc3)c2c1` [TCMDC-142070]: in data set [1] (setting [4]), the “% inhibition male (individual replicates) R1” value is on record as -12.6%, the “% inhibition male (individual replicates) R3” value was -7.9% and the “% inhibition male (individual replicates) R4” value came to 12.9%. The “Average inhibition male (%)” value in data set [1] (setting [5]) is -0.848%. Besides, in data set [2] (setting [4]), the “% inhibition female (individual replicates) R1” value stood at 9.6%, the “% inhibition female (individual replicates) R3” value is -4.2% and the “% inhibition female (individual replicates) R4” value is -9.4%. Besides, in data set [2] (setting [5]), the “Average inhibition female (%)” value was found to be 1.3%.

As to `CC1(C)N=C(N)N=C(N)N1c1ccc(Cl)c(Cl)c1.Cl` [TCMDC-142180], in data set [1] (setting [4]), the “% inhibition male (individual replicates) R1” value is 8.4% and the “% inhibition male (individual replicates) R4” value was -27.5%. The “Average inhibition male (%)” value in data set [1] (setting [5]) was determined as 6.9%. Besides, in data set [2] (setting [4]), the “% inhibition female (individual replicates) R1” value is -5.5%, the “% inhibition female (individual replicates) R3” value is -6.4% and the “% inhibition female (individual replicates) R4” value is listed as 1.4%. Moreover, the “Average inhibition female (%)” value in data set [2] (setting [5]) is -4.7%.

As for `CCOc1ccc2c(=NN=Cc3ccc(OC)c(OC)c3)cc(C)[nH]c2c1` [TCMDC-142206], in data set [1] (setting [3]), the “Average inhibition male (%)” value stood at 11.1%, the “% inhibition male (individual replicates) R1” value is 9.5%, the “% inhibition male (individual replicates) R3” value is on record as 6.4% and the “% inhibition male (individual replicates) R4” value is 28.2%. In data set [1] (2µM, 24h preincubation, number of replicates with >50% inhibition in the male readout), the HitlevelM is 0. For the same compound, in data set [2] (setting [3]), the “Average inhibition female (%)” value is recorded as 22.4%, the “% inhibition female (individual replicates) R1” value was 27.0%, the “% inhibition female (individual replicates) R3” value is listed as -3.4% and the “% inhibition female (individual replicates) R4” value is on record as 40.7%. The HitlevelF in data set [2] (2µM, 24h preincubation, number of replicates with >50% inhibition in the female readout) was found to be 0.

With `Cl.Nc1c(I)cc(C(=O)Nc2ccc3nc4c(c(N)c3c2)CCCC4)cc1I` [TCMDC-142289], in data set [1] (setting [6]), the “Average inhibition male (%)” value was determined as 92.1%, the “% inhibition male (individual replicates) R1” value is 89.6% and the “% inhibition male (individual replicates) R4” value is on record as 96.1%. For the same compound, in data set [2] (setting [6]), the “Average inhibition female (%)” value was 49.6%, the “% inhibition female (individual replicates) R1” value is given as 51.7%, the “% inhibition female (individual replicates) R3” value is given as 34.7% and the “% inhibition female (individual replicates) R4” value stood at 48.7%.

For `O=c1c(NCCCN(Cc2ccc(F)cc2)c2ccccn2)c(NCc2ccncc2)c1=O` [TCMDC-142310], in data set [1] (setting [4]), the “% inhibition male (individual replicates) R1” value is recorded as -3.0%, the “% inhibition male (individual replicates) R3” value was -19.8% and the “% inhibition male (individual replicates) R4” value was -2.5%. The “Average inhibition male (%)” value in data set [1] (setting [5]) is listed as -8.8%. Also, in data set [2] (setting [4]), the “% inhibition female (individual replicates) R1” value is 6.5%, the “% inhibition female (individual replicates) R3” value is listed as -28.2% and the “% inhibition female (individual replicates) R4” value is given as -7.1%. Further, the “Average inhibition female (%)” value in data set [2] (setting [5]) is listed as -7.2%.
